# Paper PMC10914731, “Homo-BacPROTAC-induced degradation of ClpC1 as a strategy against drug-resistant mycobacteria” (Nature Communications, 2024)
# Values joined by “and” are separate entries in the source; they are usually repeats but may differ in a detail not shown here. Identical values can stand only once. Like-named read-outs stand apart in the source and are kept apart here. *1 amine or outer side, *2 acyl side, *3 side chain or, on linkers, in order; H or OH if unused. Where a SMILES comes first, the peptide text is derived from it. [ ]: non-standard residue; d: D form. X1 = C#CCn1cc(C[C@H](N[*:1])C(=O)[*:2])c2ccccc21; NMeLeu(5-OH,4R) = CN[C@@H](C[C@@H](C)CO)C(=O)O; Phe(βR-OMe) = CO[C@H](c1ccccc1)[C@H](N)C(=O)O; NMeL = CN[C@@H](CC(C)C)C(=O)O
# Legend:
# Msm 700084 = assay: microbe, parasite or virus in culture; type: cell-based
# [1] = system: M. tuberculosis H37Rv (ATCC 27294); assay: microbe, parasite or virus in culture; type: cell-based
# [2] = molecular target: ClpC1 NTD protein (M. tuberculosis) (Mycobacterium tuberculosis, UniProt P9WPC9); assay: biochemical; type: binding; details: SPR
# [3] = molecular target: endogenous ClpC1 in Msm #607 cells (Mycolicibacterium smegmatis, UniProt A0R574); type: cell-based, M. smegmatis
# [4] = type: in vitro ADME, Mice
# Summary of the method: (§1)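 Metabolic depletion in liver microsomes (0.5 mg/ml, 1 mM NADPH, 37 °C) starting from 1 µmol/l test compound, sampled at multiple times with acetonitrile quench. LC-MS/MS quantitation; half-life converted to %Qh.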
# [5] = molecular target: ClpC1-NTD substrate, M. tuberculosis ClpC1P1P2 (Mycobacterium tuberculosis, UniProt P9WPC9); assay: biochemical; type: biochemical; details: Mtb
# Msm 607 = assay: microbe, parasite or virus in culture; type: cell-based
# [6] = type: in vitro ADME, Rat
# Summary of the method: as §1
# [7] = system: non-replicating cells of Mtb H37Rv; type: cell-based, Mycobacterium tuberculosis; details: three replicate columns
# Mycobacterium fortuitum = assay: microbe, parasite or virus in culture; type: cell-based
# [8] = system: Mycobacterium intracellulare; assay: microbe, parasite or virus in culture; type: cell-based
# [9] = Experiment 2, three replicate columns
# Chain of endogenous ClpC1 in Msm #607 cells (A0R574 whole entry): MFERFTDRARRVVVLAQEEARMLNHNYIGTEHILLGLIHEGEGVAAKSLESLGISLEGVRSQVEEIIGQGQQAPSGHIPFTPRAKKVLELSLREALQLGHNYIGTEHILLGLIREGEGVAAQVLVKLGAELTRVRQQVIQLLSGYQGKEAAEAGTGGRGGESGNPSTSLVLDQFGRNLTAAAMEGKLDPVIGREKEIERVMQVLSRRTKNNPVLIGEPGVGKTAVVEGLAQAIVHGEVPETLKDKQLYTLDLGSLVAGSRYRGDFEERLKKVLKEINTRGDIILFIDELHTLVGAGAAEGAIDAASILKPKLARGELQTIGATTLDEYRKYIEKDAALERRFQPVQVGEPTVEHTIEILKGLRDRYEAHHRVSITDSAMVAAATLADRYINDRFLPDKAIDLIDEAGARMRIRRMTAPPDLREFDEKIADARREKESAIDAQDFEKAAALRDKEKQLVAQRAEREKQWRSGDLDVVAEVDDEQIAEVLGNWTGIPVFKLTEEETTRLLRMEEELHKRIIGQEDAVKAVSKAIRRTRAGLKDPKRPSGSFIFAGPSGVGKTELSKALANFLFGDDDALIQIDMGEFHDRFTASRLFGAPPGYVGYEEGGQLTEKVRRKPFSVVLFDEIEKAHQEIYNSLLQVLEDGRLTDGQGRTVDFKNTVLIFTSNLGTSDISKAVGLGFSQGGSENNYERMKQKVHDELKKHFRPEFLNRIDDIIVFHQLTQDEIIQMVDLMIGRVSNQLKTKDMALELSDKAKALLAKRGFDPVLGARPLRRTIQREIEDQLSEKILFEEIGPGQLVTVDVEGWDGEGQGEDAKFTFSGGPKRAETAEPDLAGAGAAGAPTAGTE
# Chain of ClpC1-NTD substrate, M. tuberculosis ClpC1P1P2 (P9WPC5 whole entry): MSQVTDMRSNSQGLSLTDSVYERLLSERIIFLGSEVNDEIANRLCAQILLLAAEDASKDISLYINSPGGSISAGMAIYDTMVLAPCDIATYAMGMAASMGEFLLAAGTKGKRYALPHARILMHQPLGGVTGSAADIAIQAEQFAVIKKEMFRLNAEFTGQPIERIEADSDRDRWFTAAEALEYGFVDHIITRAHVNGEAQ
# Chain of ClpC1-NTD substrate, M. tuberculosis ClpC1P1P2 (P9WPC9 whole entry): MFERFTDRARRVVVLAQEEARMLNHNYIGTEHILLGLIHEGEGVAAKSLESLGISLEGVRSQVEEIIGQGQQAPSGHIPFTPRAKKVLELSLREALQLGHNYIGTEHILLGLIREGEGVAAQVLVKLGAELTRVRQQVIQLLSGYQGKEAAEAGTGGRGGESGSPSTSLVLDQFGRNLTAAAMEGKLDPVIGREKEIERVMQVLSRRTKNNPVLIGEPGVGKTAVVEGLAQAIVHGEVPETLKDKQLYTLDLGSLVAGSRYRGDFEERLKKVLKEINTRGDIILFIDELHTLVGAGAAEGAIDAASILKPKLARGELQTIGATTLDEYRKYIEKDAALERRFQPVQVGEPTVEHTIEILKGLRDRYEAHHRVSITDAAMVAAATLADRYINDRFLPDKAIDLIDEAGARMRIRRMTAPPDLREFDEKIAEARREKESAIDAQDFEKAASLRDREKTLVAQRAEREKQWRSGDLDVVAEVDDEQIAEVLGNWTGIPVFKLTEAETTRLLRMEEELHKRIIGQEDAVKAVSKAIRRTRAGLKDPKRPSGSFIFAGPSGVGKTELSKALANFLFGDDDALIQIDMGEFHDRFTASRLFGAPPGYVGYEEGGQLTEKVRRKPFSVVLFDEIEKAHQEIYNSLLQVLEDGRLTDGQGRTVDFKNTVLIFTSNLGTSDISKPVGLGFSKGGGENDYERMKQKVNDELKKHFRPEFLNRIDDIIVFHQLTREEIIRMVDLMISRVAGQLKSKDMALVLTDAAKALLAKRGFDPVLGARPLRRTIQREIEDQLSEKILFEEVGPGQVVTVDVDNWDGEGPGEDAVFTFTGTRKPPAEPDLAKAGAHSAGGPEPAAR
# Chain of ClpC1-NTD substrate, M. tuberculosis ClpC1P1P2 (P9WPC3 whole entry, further chain): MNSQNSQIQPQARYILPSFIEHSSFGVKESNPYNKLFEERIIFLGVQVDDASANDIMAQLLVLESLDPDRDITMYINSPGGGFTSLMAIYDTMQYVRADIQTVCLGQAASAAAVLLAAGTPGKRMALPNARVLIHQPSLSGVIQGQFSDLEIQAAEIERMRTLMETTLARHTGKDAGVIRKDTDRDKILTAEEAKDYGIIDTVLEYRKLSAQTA
# Chain of ClpC1 NTD protein (M. tuberculosis) (P9WPC9 1-156, looked up, natural form): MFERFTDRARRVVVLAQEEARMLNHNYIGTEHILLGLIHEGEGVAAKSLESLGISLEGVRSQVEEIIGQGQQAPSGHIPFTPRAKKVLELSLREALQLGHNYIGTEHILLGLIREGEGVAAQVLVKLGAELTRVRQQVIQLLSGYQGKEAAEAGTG
structure (smiles),measurement,setting,value
"C#CCn1cc(C[C@@H]2NC(=O)[C@H](C(C)C)NC(=O)[C@H](CC(C)C)N(C)C(=O)[C@H](C(C)C)NC(=O)[C@H]([C@H](OC)c3ccccc3)NC(=O)[C@H](C)NC(=O)[C@H](C[C@@H](C)CO)N(C)C2=O)c2ccccc21 [Compound 5] (cyclo(A[Phe(βR-OMe)]V[NMeL]V[X1][NMeLeu(5-OH,4R)]))",MIC,"Msm 700084; Mycolicibacterium smegmatis, 700084, single determinations, read-out: Msm 700084 MIC",6.25 µM
same,MIC,"Msm 700084; Mycolicibacterium smegmatis, 700084, read-out: MIC Msm 700084",6.3 µM
same,MIC,"[1]; M. tuberculosis H37Rv 27294, single well replicates, read-out: MIC",3.125 µM (2×) and 1.56 µM
same,MIC,"[1]; Mycobacterium tuberculosis, M. tuberculosis H37Rv strain, read-out: MIC Mtb H37Rv Mean ± SD",1.6 µM
same,MIC,"[1]; Mycobacterium tuberculosis, Mtb H37Rv (Supplementary Table 2), read-out: MIC Mtb",1.6 µM
same,MIC,"[1]; Mycobacterium tuberculosis, Mtb H37Rv, mean ± SD, n = 3 well replicates, read-out: MIC",2.6 ± 0.9 µM
same,MIC,"[1]; Mycobacterium tuberculosis, Set 1, read-out: MIC (Mtb H37Rv) Set 1",1.56 µM and 1.47 µg/mL
same,MIC,"[1]; Mycobacterium tuberculosis, Set 2, read-out: MIC (Mtb H37Rv) Set 2",1.56 µM and 1.47 µg/mL
same,MIC,"[1]; Mycobacterium tuberculosis, Set 3, done at a different day than Set 1 and Set 2, read-out: MIC (Mtb H37Rv) Set 3",1.56 µM and 1.47 µg/mL
same,MIC,"[1]; Mycobacterium tuberculosis, individual example (Supplementary Table 11), read-out: MIC Mtb H37Rv",1.6 µM and 1.5 µg/mL
same,MIC,"[1]; Mycobacterium tuberculosis, individual measurements (source data), read-out: Mtb MIC",1.56 µM
same,MIC,"[1]; Mycobacterium tuberculosis, mean of 3 experiments +/- SD, unit taken from the sets above in the same table, read-out: MIC data (Mtb H37Rv) (+/- SD)",1.56 µM and 1.47 µg/mL
same,MIC,"[1]; Mycobacterium tuberculosis, single determinations, read-out: Mtb MIC",1.56 µM
same,Kd,"[2]; individual measurements (source data), read-out: KD ClpC1-NTD",3.63 nM and 3.45 nM
same,koff ClpC1-NTD,[2]; single independent measurements,0.04 s⁻¹
same,koff,"[2]; single independent measurements, read-out: koff ClpC1-NTD",0.02 s⁻¹
same,Kd,[2]; read-out: ClpC1-NTD KD Mean ± SD,3.5 ± 0.1 nM
same,ClpC1 peak area,"[3]; 100 µM, Figure 5c, well replicates of 3 experiments",296040 and 308121 and 346162 and 550976 and 476988 and 428795 and 417149 and 443522 and 406576
same,intracellular degradation of ClpC1,"[3]; Msm #607, 24 h, result in words",did not induce degradation of ClpC1
same,Microsomal Stability Mouse QH,[4]; Mouse,>88.400%
same,Microsomal Stability Mice,[4]; clearance in microsomes,> 88 %Qh
same,DC50,"[5]; Measurement 1-4, read-out: DC50, single measurements",> 100000 nM
same,DC50,"[5]; mean of the measurements, read-out: DC50, Mean",> 100000 nM
same,MIC,"Msm 607; Mycolicibacterium smegmatis, 607, read-out: MIC Msm 607",25 µM
same,MIC,"Msm 607; Mycolicibacterium smegmatis, 607, read-out: MIC Msm #607, individual example (Supplementary Table 11)",25 µM and 23.5 µg/mL
same,MIC,"Msm 607; Mycolicibacterium smegmatis, 607, read-out: Msm 607 MIC, single determinations",25 µM
same,MIC,"Msm 607; Mycolicibacterium smegmatis, ATCC607, Set-1, read-out: MIC (Msm ATCC607) Set-1",12.5 µM and 11.8 µg/mL
same,MIC,"Msm 607; Mycolicibacterium smegmatis, ATCC607, Set-2, read-out: MIC (Msm ATCC607) Set-2",25 µM and 23.5 µg/mL
same,MIC,"Msm 607; Mycolicibacterium smegmatis, ATCC607, Set-3, done at a different day than Set 1 and Set 2, read-out: MIC (Msm ATCC607) Set-3",12.5 µM and 11.8 µg/mL
same,MIC,"Msm 607; Mycolicibacterium smegmatis, ATCC607, mean of 3 experiments ± SD, read-out: MIC including standard deviations (Msm ATCC607)",16.6 µM and 15.7 µg/mL
same,Microsomal Stability Rat QH,[6]; Rat,>87.900%
same,Microsomal Stability Rat,[6]; clearance in microsomes,> 88 %Qh
same,"Supplementary Figure 2 dose-response value, starvation-induced non-replicating H37Rv cells",[7]; Conc. 0.0488281 µM,103.448 and 95.0508 and 97.0505
same,"Supplementary Figure 2 dose-response value, starvation-induced non-replicating H37Rv cells",[7]; Conc. 0.0976562 µM,90.7405 and 81.0762 and 83.793
same,"Supplementary Figure 2 dose-response value, starvation-induced non-replicating H37Rv cells",[7]; Conc. 0.195312 µM,92.9713 and 85.6175 and 87.7368
same,"Supplementary Figure 2 dose-response value, starvation-induced non-replicating H37Rv cells",[7]; Conc. 0.390625 µM,86.478 and 81.4188 and 83.0521
same,"Supplementary Figure 2 dose-response value, starvation-induced non-replicating H37Rv cells",[7]; Conc. 0.78125 µM,85.259 and 79.8652 and 81.4825
same,"Supplementary Figure 2 dose-response value, starvation-induced non-replicating H37Rv cells",[7]; Conc. 1.5625 µM,86.0796 and 80.7177 and 79.658
same,"Supplementary Figure 2 dose-response value, starvation-induced non-replicating H37Rv cells",[7]; Conc. 3.125 µM,84.8208 and 76.8536 and 80.407
same,"Supplementary Figure 2 dose-response value, starvation-induced non-replicating H37Rv cells",[7]; Conc. 6.25 µM,82.0881 and 78.7498 and 78.7099
same,"Supplementary Figure 2 dose-response value, starvation-induced non-replicating H37Rv cells",[7]; Conc. 25 µM,68.1135 and 65.0382 and 65.6038
same,"Supplementary Figure 2 dose-response value, starvation-induced non-replicating H37Rv cells",[7]; Conc. 50 µM,63.9387 and 63.1101 and 60.943
same,"Supplementary Figure 2 dose-response value, starvation-induced non-replicating H37Rv cells",[7]; Conc. 100 µM,61.9787 and 54.8959 and 58.7122
same,MIC,"Mycobacterium fortuitum; Experiment 1, read-out: MIC Mycobacterium fortuitum",6.3 µM
same,MIC (µg/ml) Mycobacterium fortuitum,Mycobacterium fortuitum; [9],5.88 µg/mL
same,MIC,"Mycobacterium fortuitum; Experiment 2, three replicate columns, read-out: MIC (µM) Mycobacterium fortuitum",6.25 µM
same,MIC,"Mycobacterium fortuitum; Mycolicibacterium fortuitum, Experiment 1, read-out: MIC Mycobacterium fortuitum",5.9 µg/mL
same,MIC,"Mycobacterium fortuitum; Mycolicibacterium fortuitum, Experiment 2, three replicate columns, read-out: MIC (µM) Mycobacterium fortuitum",6.25 µM
same,MIC,"Mycobacterium fortuitum; Mycolicibacterium fortuitum, Experiment 2, three replicate columns, read-out: MIC (µg/ml) Mycobacterium fortuitum",5.88 µg/mL
same,MIC,"Mycobacterium fortuitum; Mycolicibacterium fortuitum, mean ± SD, read-out: MIC Mycobacterium fortuitum",6.3 µM
same,MIC,"[8]; Experiment 1, read-out: MIC Mycobacterium intracellulare",6.3 µM
same,MIC (µg/ml) Mycobacterium intracellulare,[8]; [9],5.88 µg/mL
same,MIC,"[8]; Experiment 2, three replicate columns, read-out: MIC (µM) Mycobacterium intracellulare",6.25 µM
same,MIC,"[8]; Mycobacterium intracellulare, Experiment 1, read-out: MIC Mycobacterium intracellulare",5.9 µg/mL
same,MIC,"[8]; Mycobacterium intracellulare, Experiment 2, three replicate columns, read-out: MIC (µM) Mycobacterium intracellulare",6.25 µM
same,MIC,"[8]; Mycobacterium intracellulare, Experiment 2, three replicate columns, read-out: MIC (µg/ml) Mycobacterium intracellulare",5.88 µg/mL
same,MIC,"[8]; Mycobacterium intracellulare, mean ± SD, read-out: MIC Mycobacterium intracellulare",6.3 µM
